Series [1] deals with UA sulfation. The experiment in a line: Inhibition of UA sulfation (formation of UA-sulfate by HPLC-MS). The format is biochemical. To be noted: UA concentration 2 μM, triplicate. As for the experimental part:
FIG. 5. IC50 of glycyrrhetinic acid. UA concentration was 2 μM. Determination was done in triplicate.
Table 1. IC50 values for several inhibitors of UA sulfation. UA concentration was 2 μM. Determinations were done in triplicate, and formation of UA-sulfate was determined by HPLC-MS followed by nonlinear regression with the Hill equation.

The conditions of series [2]: colour and water solubility with time.
The nature of series [3]: Solubility of ursolic acid salts in hydrophilic solvents (clear saturated solution). The procedure: The salts were weighed, mixed with the solvent, and incubated to reach clear saturated solution (37° C. for water and ethanol; 55° C. for PEG 400 and glycerol).
The conditions of series [4]: cited from earlier work.
The conditions of series [5]: cited from earlier work. The source holds these as a separate data set.
The conditions of series [6]: background statement; cited from earlier work.

Read-outs that look alike come from different tables or passages of the source.

In general, Hill slope refers to a measure of the steepness of the concentration-response curve. For orientation: IC50 means the concentration needed to halve the response being measured.

Consider `CC(=O)O[C@H]1CC[C@@]2(C)C(=CC(=O)[C@@H]3[C@@H]2CC[C@]2(C)C(=O)CC[C@@H]32)C1` [7-oxo-DHEA acetate], for which the Hill slope in series [1] (Hill equation) is listed as 1.2 ± 0.06. In addition, in series [1] (Hill equation, read-out: IC50), the IC50 was 20.2 ± 3.6 µM.

For the molecule `C[C@]12CC[C@H](O)CC1=CC(=O)C1C2CC[C@]2(C)C(=O)CCC12` (some centres unmarked) [7-oxo-DHEA], in series [1] (Hill equation), the Hill slope is given as 1.2 ± 0.4. In addition, in series [1] (Hill equation, read-out: IC50), the IC50 is 38.1 ± 1.2 µM.

With `C[C@]12CC[C@H](O)CC1=CC[C@@H]1[C@@H]2CC[C@]2(C)C(=O)CC[C@@H]12` [DHEA, dehydroepiandrosterone], the Hill slope in series [1] (Hill equation) is 1.4 ± 0.1. The IC50 in series [1] (Hill equation, read-out: IC50) is 1.2 ± 0.1 µM.

For `CC1(C)[C@@H](O)CC[C@]2(C)[C@H]3C(=O)C=C4[C@@H]5C[C@@](C)(C(=O)O)CC[C@]5(C)CC[C@@]4(C)[C@]3(C)CC[C@@H]12` [Glycyrrhetinic acid], the IC50 in series [1] (95% CI, read-out: IC50 (FIG. 5)) turned out to be 18.6 µM; in series [1] (Hill equation, read-out: IC50) it was 14 ± 0.2 µM. In addition, the Hill slope in series [1] (Hill equation) was 4.8 ± 3.5.

Regarding `C=C1C[C@@]23CC[C@H]4[C@@](C)(CCC[C@@]4(C)C(=O)O)[C@@H]2CC[C@]1(O)C3` [Steviol], the Hill slope in series [1] (Hill equation) was found to be 1.4 ± 0.1. Moreover, the IC50 in series [1] (Hill equation, read-out: IC50) worked out at 11.8 ± 1.8 µM.

`C[C@H]1CC[C@]2(NC1)O[C@H]1C[C@H]3[C@@H]4CC[C@H]5C[C@@H](O)CC[C@]5(C)[C@H]4CC[C@]3(C)[C@H]1[C@@H]2C` [Tomatidine] returned a Hill slope in series [1] (Hill equation) of 0.5 ± 0.03. Moreover, in series [1] (Hill equation, read-out: IC50), the IC50 is 84.8 ± 5.1 µM.

As for `C[C@H]1[C@H](C)CC[C@]2(C(=O)O)CC[C@]3(C)C(=CC[C@@H]4[C@@]5(C)CC[C@H](O)C(C)(C)[C@@H]5CC[C@]43C)[C@H]12` [UAdC-O, ursolic acid dicholine complex], in series [2], the stability result was “unstable”.

With `C[C@H]1[C@H](C)CC[C@]2(C(=O)O)CC[C@]3(C)C(=CC[C@@H]4[C@@]5(C)CC[C@H](O)C(C)(C)[C@@H]5CC[C@]43C)[C@H]12` [UAdC-W, ursolic acid dicholine hydroxide hydrated complex], in series [2], the stability result is reported as “stable”.

Regarding `C[C@H]1[C@H](C)CC[C@]2(C(=O)[O-])CC[C@]3(C)C(=CC[C@@H]4[C@@]5(C)CC[C@H](O)C(C)(C)[C@@H]5CC[C@]43C)[C@H]12.C[N+](C)(C)CCO` [UAmC, monocholine ursolate], in series [3] (PEG400, data not shown), the “PEG400 solubility compared to UAK” value is “lower solubility”. Further, the “ethanol solubility, comparison” value in series [3] (ethanol, FIG. 1B) is recorded as “less than UAK”.

`C[C@@H]1CC[C@]2(C(=O)O)CC[C@]3(C)C(=CCC4[C@@]5(C)CC[C@H](O)C(C)(C)C5CC[C@]43C)C2[C@H]1C` (some centres unmarked) [Ursolic acid]: in series [4], the “pKa of carboxylic acid” value is 4.7. In addition, the oral bioavailability result in series [5] is recorded as “less than 1%”. Moreover, the solubility in water entry in series [6] is given as “less than 1 μg/mL”.

(Values after patent US12643922B2 (VIRGINIA COMMONWEALTH UNIVERSITY, priority 2021, dated 2026).)
